Here are results for one compound from US10513519B2, “Solid forms of (1S,4S)-4-(2-(((3S,4R)-3-fluorotetrahydro-2H-pyran-4-yl)amino)-8-((2,4,6-trichlorophenyl)amino)-9H-purin-9-yl)-1-methylcyclohexane-1-carboxamide and methods of their use” (Signal Pharmaceuticals, LLC, priority 2016, dated 2019).

Common to all, as to assay type: cell-based
In experiment [1] the test system is cancer cell lines. As to the kind of experiment: Multiplexed cytotoxicity assay: apoptosis (activated caspase-3 induction). As to conditions: KLE, Female GU, Uterus; 72 h. How it is done:
Cells are grown in RPMI1640, 10% FBS, 2 mM L-alanyl-L-Glutamine, 1 mM Na pyruvate or a special medium in a humidified atmosphere of 5% CO2 at 37° C. Cells are seeded into 384-well plates and incubated in a humidified atmosphere of 5% CO2 at 37° C. Compounds are added 24 h post cell seeding. At the same time, a time zero untreated cell plate is generated. After a 72 hour incubation period, cells are fixed and stained with fluorescently labeled antibodies and nuclear dye to allow visualization of nuclei, apoptotic cells and mitotic cells. Apoptotic cells are detected using an anti-active caspase-3 antibody. Mitotic cells are detected using an anti phospho-histone-3 antibody. […] Automated fluorescence microscopy was carried out using a Molecular Devices ImageXpress Micro XL high-content imager, and images are collected with a 4× objective. […]
In another experiment, cells were grown in RPMI1640, 10% FBS, 2 mM L-alanyl-L-Glutamine, 1 mM Na pyruvate or a special medium in a humidified atmosphere of 5% CO2 at 37° C. […] Apoptotic cells were detected using an anti-active caspase-3 antibody. Mitotic cells were detected using an anti phospho-histone-3 antibody. […] Automated fluorescence microscopy was carried out using a Molecular Devices ImageXpress Micro XL high-content imager, and images were collected with a 4× objective. […]

Experiment [2] relates to HCC cell lines. As to the kind of experiment: HCC cell line proliferation (CellTiter-Glo). As to conditions: for IC50 / GI50: CellTiter-Glo. How it is done: HCC cell lines were treated with DMSO or increasing concentrations of Compound 1 for 72 h. Specifically, Compound 1 at various concentrations in dimethyl sulfoxide (DMSO) was spotted via an acoustic dispenser (EDC ATS-100) into an empty 384-well plate. Compound 1 was spotted in a 10-point serial dilution fashion (3-fold dilution) in duplicate within the plate. Replicates of plates spotted with Compound 1 were made for use with different cell lines. After compound plate replication, all plates were sealed (Agilent ThermoLoc) and stored at −20° C. for up to 1 month. When ready for testing, plates were removed from the freezer, thawed, and unsealed just prior to the addition of the test cells.
Prior to testing, cells were grown and expanded in culture flasks to provide sufficient amounts of starting material. Cells were then diluted to the appropriate densities and added directly to the compound-spotted 384-well plates. Cells were allowed to grow for 72 h at 37° C./5% CO2. At the time when compound was added (to), initial cell number was assessed via a viability assay (Cell Titer-Glo) by quantifying the level of luminescence generated by ATP present in viable cells. After 72 h, cell viability of compound-treated cells was assessed via Cell Titer-Glo and luminescence measurement. The apoptotic response to Compound 1 was assessed by quantifying the activities of caspase 3 and caspase 7 (Caspase 3/7-Glo) in treated cells and DMSO control cells.
Proliferation and apoptosis were measured using CellTiter-Glo and Caspase 3/7-Glo. CalX2 values are the lowest concentration at which Compound 1 induces a 2-fold increase of cleaved caspase 3/7 compared to DMSO control. Proliferation and apoptosis data is the average of 3 experiments.
Background: ATP-based viability assays read luminescence as a measure of living cells.

For experiment [3], the system named is pRSK1 S380 in Colo 205 cells. As to the kind of experiment: pRSK1 S380 Mesoscale assay in Colo 205 (incl. time course). How it is done:
Cancer cells were seeded at a density of 25,000 cells per well in 96-well tissue culture plates and incubated at 37° C. in a CO2 incubator overnight. After treatment with Compound 1 at 37° C. for 2 h, the cells were lysed with Mesoscale lysis buffer and pRSK S380 levels in each lysate were measured via Mesoscale ELISA technology.
In a time course experiment, Colo-205 cancer cells were treated with 0.5 μM Compound 1 for various time periods. The effect of Compound 1 on pRSK S380 was measured as described. The effect of Compound 1 on other MAPK pathway markers (DUSP4 and DUSP6) was measured via Western blotting with specific antibodies.

Where only a bound is given, the exact number is not on record here.

Broadly, the IC50 is the concentration that gives 50% inhibition. A higher IC50 goes with weaker potency in that assay. A word on the GI50: it is the concentration giving 50% growth inhibition. A lower GI50 goes with greater sensitivity of the cells. Compound `C[C@]1(C(N)=O)CC[C@@H](n2c(Nc3c(Cl)cc(Cl)cc3Cl)nc3cnc(N[C@@H]4CCOC[C@H]4F)nc32)CC1` [Compound 1, cis-4-[2-{[(3S,4R)-3-fluorooxan-4-yl]amino}-8-(2,4,6-trichloroanilino)-9H-purin-9-yl]-1-methylcyclohexane-1-carboxamide] showed a CalX2 in experiment [1] of 10 µM. Besides, the “proliferation of HCC lines” value in experiment [2] (72 h) is recorded as “inhibits proliferation”. For the same compound, the IC50 in experiment [2] (72 h, JHH-5, 72 h) is 0.0072 µM; in experiment [2] (72 h, JHH-6, 72 h), at least 10 µM; in experiment [2] (HepG2/C3A, 72 h), at least 10 µM; in experiment [2] (Homo sapiens, SK-HEP1, 72 h, SK-HEP-1, 72 h), at least 10 µM; in experiment [2] (Homo sapiens, SNU-423, 72 h), at least 10 µM; in experiment [2] (Homo sapiens, SNU-449, 72 h), at least 10 µM. In addition, the half-inhibitory concentration (IC50) was at least 10 µM in experiment [2] (Homo sapiens, SNU-475, 72 h) and 0.047 µM in experiment [3] (Homo sapiens, Colo 205, 2 h treatment, n = 3). Moreover, the GI50 was at least 10 µM in experiment [2] (72 h, JHH-6, 72 h) and at least 10 µM in experiment [2] (Homo sapiens, SNU-449, 72 h). For the same compound, the pRSK1 inhibition entry in experiment [3] (Colo 205, 2 h) was “potently inhibited pRSK1”. Besides, the “inhibition of ERK targets pRSK1, DUSP4 and DUSP6 over time” value in experiment [3] (Colo-205, 0.5 μM, time course) is “sustained inhibition (up to 72 hr)”.
